Experimental data as given in the supplement of paper PMC11061612.

Experiments:
Test in all cases: combination Emax (second highest fraction inhibited in the dose matrix, 72 h); higher = more inhibition; extreme values may be limits of the assay
[1] = tested on: CL-11 (Colorectal Carcinoma)
Outline: (§1)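 After 24 hours at 37°C and 5% CO2 in 1536-well plates, cells in DMEM/F12 or RPMI plus 10% FBS received two-drug dose matrices for 72 hours. Viability came from CellTiter-Glo 2.0 luminescence and was scaled as inhibition, anchored at 0 by vehicle wells and at 1 by blank wells. Combination Emax is taken as the second-highest inhibition in the matrix, and Bliss excess as the observed combination effect less EA + EB − EA·EB, with EA and EB the single-agent effects.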

[2] = tested on: C-33-A (Cervical Carcinoma)
Outline: as §1

[3] = tested on: SK-CO-1 (Colorectal Carcinoma)
Outline: as §1

AM-38 (Glioblastoma) = tested on: AM-38 (Glioblastoma)
Outline: as §1

[4] = tested on: MDA-MB-415 (Breast Carcinoma)
Outline: as §1

ES6 (Ewing's Sarcoma) = tested on: ES6 (Ewing's Sarcoma)
Outline: as §1

NB1 (Neuroblastoma) = tested on: NB1 (Neuroblastoma)
Outline: as §1

[5] = tested on: SNU-C2B (Colorectal Carcinoma)
Outline: as §1

[6] = tested on: NCI-H1963 (Small Cell Lung Carcinoma)
Outline: as §1

[7] = tested on: CPC-N (Small Cell Lung Carcinoma)
Outline: as §1

NCI-H2373 (Mesothelioma) = tested on: NCI-H2373 (Mesothelioma)
Outline: as §1

WM35 (Melanoma) = tested on: WM35 (Melanoma)
Outline: as §1

[8] = tested on: BxPC-3 (Pancreatic Carcinoma)
Outline: as §1

[9] = tested on: MS-1 (Small Cell Lung Carcinoma)
Outline: as §1

UACC-257 (Melanoma) = tested on: UACC-257 (Melanoma)
Outline: as §1

[10] = tested on: KP-4 (Pancreatic Carcinoma)
Outline: as §1

[11] = tested on: NMC-G1 (Low Grade Glioma)
Outline: as §1

[12] = tested on: SCC-4 (Oral Cavity Carcinoma)
Outline: as §1

[13] = tested on: RCC-JW (Kidney Carcinoma)
Outline: as §1

[14] = tested on: OVCAR-3 (Ovarian Carcinoma)
Outline: as §1

| SMILES | combination Emax [1] | combination Emax [2] | combination Emax [3] | combination Emax (AM-38 (Glioblastoma)) | combination Emax [4] | combination Emax (ES6 (Ewing's Sarcoma)) | combination Emax (NB1 (Neuroblastoma)) | combination Emax [5] | combination Emax [6] | combination Emax [7] | combination Emax (NCI-H2373 (Mesothelioma)) | combination Emax (WM35 (Melanoma)) | combination Emax [8] | combination Emax [9] | combination Emax (UACC-257 (Melanoma)) | combination Emax [10] | combination Emax [11] | combination Emax [12] | combination Emax [13] | combination Emax [14] |
| --- | --- | --- | --- | --- | --- | --- | --- | --- | --- | --- | --- | --- | --- | --- | --- | --- | --- | --- | --- | --- |
| COc1cccc(OCCCN)c1-c1cc(Nc2cnc(C#N)cn2)n[nH]1 [Prexasertib] + CN(C)CCCOc1ccc(-c2ccc3ncc4c(c3c2)n(C2CCOCC2)c(=O)n4C)cn1 [AZD0156] (first compound max 1 µM, 7x7, partner max 1 µM) | 0.734 | 0.842 | 0.695 | 0.837 | 0.321 | 0.573 | 0.911 | 0.622 | 0.975 | 1 | 0.423 | 0.845 | 0.66 | 0.983 | 0.364 | 0.434 | 0.362 | 0.63 | 0.366 | 0.758 |
| Cc1cc2ncnn2cc1Nc1ncc2c(n1)n(C1CCOCC1)c(=O)n2C [AZD7648] + O=C(c1cc(Cc2n[nH]c(=O)c3ccccc23)ccc1F)N1CCN(C(=O)C2CC2)CC1 [Olaparib] (first compound max 10 µM, 7x7, partner max 10 µM) | 0.144 | 0.305 | 0.488 | 0.616 | 0.263 | 0.222 | 0.191 | 0.28 | 0.299 | 0.31 | 0.572 | 0.119 | 0.0851 | 0.399 | 0.0535 | 0.181 | 0.18 | 0.259 | 0.198 | 0.145 |
| COc1cccc(OCCCN)c1-c1cc(Nc2cnc(C#N)cn2)n[nH]1 [Prexasertib] + C=CCn1c(=O)c2cnc(Nc3ccc(N4CCN(C)CC4)cc3)nc2n1-c1cccc(C(C)(C)O)n1 [AZD1775] (first compound max 1 µM, partner max 1 µM) | 0.834 | 0.985 | 0.775 | 0.857 | 0.584 | 0.603 | 0.906 | 0.676 | 1 | 1 | 0.497 | 0.819 | 0.76 | 1 | 0.48 | 0.8 | 0.384 | 0.665 | 0.703 | 0.885 |
| C[C@@H]1COCCN1c1cc(C2([S@](C)(=N)=O)CC2)nc(-c2ccnc3[nH]ccc23)n1 [AZD6738] + O=C(c1cc(Cc2n[nH]c(=O)c3ccccc23)ccc1F)N1CCN(C(=O)C2CC2)CC1 [Olaparib] (first compound max 10 µM, 7x7, partner max 10 µM) | 0.758 | 0.89 | 0.768 | 0.747 | 0.446 | 0.522 | 0.772 | 0.69 | 0.804 | 0.912 | 0.66 | 0.547 | 0.485 | 0.742 | 0.142 | 0.706 | 0.392 | 0.729 | 0.552 | 0.555 |
